Measurements as given in patent US6448269B1 (Eli Lilly and Company, priority 1993, dated 2002).
Read-outs that look alike come from different tables or passages of the source.

Tests used:
[1] = system: human platelet-rich plasma; assay: Platelet aggregation assay (Aggregation-Human PRP/ADP); assay type: cell-based; conditions: human platelet-rich plasma incubated with compound 1 minute at 37° C., ADP-induced aggregation, read-out: Agg: Human PRP/ADP IC50uM
In short: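 Citrated human PRP (~200-400,000 platelets/μl) from healthy volunteers, stirred, incubated with compound 1 min at 37° C. Aggregation was then triggered, most often by ADP 5 μM, or by 1 μg/ml collagen, 1 μM U46619 or 0.3 μM platelet activating factor, and read in an aggregometer with platelet-poor plasma as reference.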

GPIIb-IIIa = molecular target: T1, GPIIb-IIIa (Homo sapiens, UniProt P05106+P08514); assay: ELISA IIb-IIIa assay (fibrinogen binding to immobilized GPIIb-IIIa); conditions: purified platelet GPIIb-IIIa receptor coated on ELISA plates; biotin-labeled fibrinogen 10 nM, 3 hours at 25° C.
T1 construct: Purified platelet GPIIb-IIIa receptor was prepared as described by Fitzgerald; from tissue; host or cells: platelets
T1 sequence (P08514 32-887 limits assumed): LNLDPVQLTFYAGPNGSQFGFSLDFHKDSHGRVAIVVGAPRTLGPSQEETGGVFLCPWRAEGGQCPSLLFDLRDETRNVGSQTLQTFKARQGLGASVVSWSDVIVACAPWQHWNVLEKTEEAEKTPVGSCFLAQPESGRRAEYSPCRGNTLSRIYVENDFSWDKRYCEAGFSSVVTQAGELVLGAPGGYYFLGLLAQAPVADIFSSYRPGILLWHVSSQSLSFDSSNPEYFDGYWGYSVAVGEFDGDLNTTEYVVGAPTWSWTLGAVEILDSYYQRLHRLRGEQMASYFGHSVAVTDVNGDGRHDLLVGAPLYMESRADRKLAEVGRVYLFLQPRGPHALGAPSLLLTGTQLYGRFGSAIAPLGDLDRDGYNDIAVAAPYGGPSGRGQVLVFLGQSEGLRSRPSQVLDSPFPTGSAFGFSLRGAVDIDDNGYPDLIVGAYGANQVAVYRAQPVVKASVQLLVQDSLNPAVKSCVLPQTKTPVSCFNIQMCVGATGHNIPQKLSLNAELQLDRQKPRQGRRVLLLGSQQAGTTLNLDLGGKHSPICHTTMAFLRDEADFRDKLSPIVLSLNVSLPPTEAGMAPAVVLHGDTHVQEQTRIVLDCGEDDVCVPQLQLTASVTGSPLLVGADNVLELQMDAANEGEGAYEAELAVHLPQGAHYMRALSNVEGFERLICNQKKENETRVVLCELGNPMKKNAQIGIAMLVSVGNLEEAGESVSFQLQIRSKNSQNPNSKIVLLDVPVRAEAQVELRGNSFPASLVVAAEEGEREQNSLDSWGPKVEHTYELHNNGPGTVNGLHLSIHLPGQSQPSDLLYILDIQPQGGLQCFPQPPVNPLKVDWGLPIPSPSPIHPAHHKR
T1 sequence (P05106 27-788): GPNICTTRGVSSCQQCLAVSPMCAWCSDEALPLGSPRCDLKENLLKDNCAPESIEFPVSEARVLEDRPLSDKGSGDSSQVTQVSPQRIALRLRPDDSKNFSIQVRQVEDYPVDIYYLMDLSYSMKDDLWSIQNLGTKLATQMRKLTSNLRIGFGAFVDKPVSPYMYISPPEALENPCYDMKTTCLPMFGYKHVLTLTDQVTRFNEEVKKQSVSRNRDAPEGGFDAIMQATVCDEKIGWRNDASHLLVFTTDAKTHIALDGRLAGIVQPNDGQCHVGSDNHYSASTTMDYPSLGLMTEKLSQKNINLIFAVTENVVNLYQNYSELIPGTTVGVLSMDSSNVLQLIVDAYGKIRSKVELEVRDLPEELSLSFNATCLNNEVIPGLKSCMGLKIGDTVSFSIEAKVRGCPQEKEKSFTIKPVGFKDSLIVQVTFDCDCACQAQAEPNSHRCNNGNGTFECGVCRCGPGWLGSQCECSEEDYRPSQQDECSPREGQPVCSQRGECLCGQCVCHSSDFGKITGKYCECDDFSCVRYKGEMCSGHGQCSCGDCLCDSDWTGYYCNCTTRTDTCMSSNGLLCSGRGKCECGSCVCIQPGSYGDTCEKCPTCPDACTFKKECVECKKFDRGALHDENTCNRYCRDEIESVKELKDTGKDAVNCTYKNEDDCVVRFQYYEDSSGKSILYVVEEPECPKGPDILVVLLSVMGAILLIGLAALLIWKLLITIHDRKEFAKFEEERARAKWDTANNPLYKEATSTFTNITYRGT
In short: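 Purified platelet GPIIb-IIIa was coated overnight at 4° C in Tris/NaCl/CaCl2 pH 7.4 and BSA-blocked. Biotinylated fibrinogen (10 nM final) was incubated with test compounds for 3 h at 25° C in Ca2+-containing binding buffer. Bound ligand was detected by anti-biotin–alkaline phosphatase with pNPP, OD 405.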

melting point	IC50 [1]	Molecule	IC50 ([1]; 1 min)	IC50 (GPIIb-IIIa)
–	–	N=C(N)c1ccc(C(=O)Nc2ccc3c(c2)CCC(CC(=O)O)C3)cc1 (stereo not drawn) [Example 28]	0.19 µM	5 nM
–	–	N=C(N)c1ccc(C(=O)Nc2ccc3c(c2)CCC(OCC(=O)O)C3)cc1 (stereo not drawn) [Example 29]	0.28 µM	15 nM
–	–	N=C(N)c1ccc(C(=O)Nc2ccc3c(c2)CCC(CC(=O)O)=C3)cc1 [Example 31]	15 µM	16 nM
–	–	N=C(N)c1ccc(C(=O)Nc2ccc3c(c2)CCC(CC(=O)O)C3=O)c(F)c1 (stereo not drawn) [Example 32]	0.1 µM	4 nM
–	–	O=C(O)CN1CCc2cc(OCCCC3CCNCC3)ccc2C1 [Example 34]	2.3 µM	220 nM
–	–	N=C(N)c1ccc(COc2ccc3c(c2)CCN(CC(=O)O)C3)cc1 [Example 35]	0.33 µM	30 nM
–	–	N=C(N)c1ccc(C(=O)Nc2ccc3c(c2)CCN(CC(=O)O)C3)cc1 [Example 36]	0.17 µM	5 nM
–	–	N=C(N)c1ccc(C(=O)Nc2ccc3c(c2)CCC(/C=C/C(=O)O)C3)cc1 (stereo not drawn) [Example 37]	4.4 µM	100 nM
–	–	N=C(N)c1ccc(C(=O)Nc2ccc3c(c2)CCC(CCC(=O)O)C3)cc1 (stereo not drawn) [Example 38]	2.8 µM	240 nM
–	–	N=C(N)c1ccc(NC(=O)c2ccc3c(c2)CCC(OCC(=O)O)C3)cc1 (stereo not drawn) [Example 39]	0.36 µM	31 nM
–	–	N=C(N)c1ccc(NC(=O)c2ccc3c(c2)CCC(CC(=O)O)C3)cc1 (stereo not drawn) [Example 40]	1.6 µM	53 nM
–	–	N=C(N)c1ccc(C(=O)Nc2ccc3c(c2)OCC(OCC(=O)O)C3)cc1 (stereo not drawn) [Example 41]	0.3 µM	46 nM
205 to 208 °C (dec.)	–	N=C(N)c1ccc(C(=O)Nc2ccc3c(c2)CCC(CC(=O)O)C3=O)s1 (stereo not drawn) [Example 106]	–	–
–	0.68 µM	(+−)-6-[[4-(Aminoiminomethyl)phenyl]methoxy]-3,4-dihydro-1-oxo-beta-(1,4-dioxyhexyl)-2(1H)-isoquinoline Propionoic Acid Trifluoroacetate [Example 13]	–	100 nM
